What was measured:
CYP2C9 = CYP2C9 (Homo sapiens, UniProt P11712); test: CYP inhibition assay CYP2C9; type: in vitro ADME; conditions: fluorescence detection method; read-out: CYPs enzyme inhibition, IC50, CYP2C9
[1] = In vitro microsomal stability, rat; type: in vitro ADME; conditions: rat liver microsomes, 5 μM, 60 min
[2] = In vitro microsomal stability, dog; type: in vitro ADME; conditions: dog liver microsomes, 5 μM, 60 min
CYP2C19 = CYP2C19 (Homo sapiens, UniProt P33261); test: CYP inhibition assay CYP2C19; type: in vitro ADME; conditions: fluorescence detection method; read-out: CYPs enzyme inhibition, IC50, CYP2C19
Sequence of CYP2C19 (P33261 whole entry): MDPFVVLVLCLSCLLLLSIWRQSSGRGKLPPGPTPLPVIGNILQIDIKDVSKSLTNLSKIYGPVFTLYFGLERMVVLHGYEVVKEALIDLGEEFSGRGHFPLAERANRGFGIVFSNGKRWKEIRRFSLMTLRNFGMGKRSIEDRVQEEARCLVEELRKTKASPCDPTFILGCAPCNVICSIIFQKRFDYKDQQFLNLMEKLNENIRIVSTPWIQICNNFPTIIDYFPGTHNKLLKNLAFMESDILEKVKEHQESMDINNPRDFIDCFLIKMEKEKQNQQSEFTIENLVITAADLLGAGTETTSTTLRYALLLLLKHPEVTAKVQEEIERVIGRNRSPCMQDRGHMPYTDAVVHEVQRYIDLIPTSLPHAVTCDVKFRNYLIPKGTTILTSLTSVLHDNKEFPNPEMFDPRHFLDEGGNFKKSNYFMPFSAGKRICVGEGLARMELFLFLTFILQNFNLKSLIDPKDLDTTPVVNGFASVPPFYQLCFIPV

plasma TAG level = test: Oral lipid tolerance test (OLTT), mouse; type: in vivo; conditions: ICR mice, 17a 3 mg/kg po before corn oil, n = 5
Description: Male, Institute of Cancer Research (ICR) mice were obtained from OrientBio Inc. (Republic of Korea). ICR mice (8-weeks old, n = 5/group) fasted 16 h, received 5 mL/kg corn oil via oral administration (p.o.) 30 min after compound administration. Plasma was collected at different time points (0, 1, 2, and 4 h).
To determine in vivo efficacy, we evaluated the activity of 17a against serum TAG level induced by the oral administration of corn oil (oral lipid tolerance test, OLTT; Figures 3 and 4), since intestinal targeted DGAT-1 inhibition results in a reduced serum TAG level. 17a was orally administered to ICR mice at 3 mg/kg or to dogs at 1 mg/kg before administration of corn oil.
Figure 3. Effect of 17a in the oral lipid tolerance test (n = 5, ***p < .001). Serum TG (or TAG) concentration was measured before and 1, 2, and 4 h after oral administration of corn oil in ICR mice treated with 17a (3 mg/kg) or 2 (1 mg/kg). Vehicle for 2: 0.5% methylcellulose/0.5% Tween80 in distilled water, vehicle for 17a: 0.5% Tween80 in distilled water.

[3] = target: T1, human recombinant DGAT1 enzyme expressed in insect cells (SF9 cells) (Homo sapiens, UniProt O75907); test: DGAT-1 inhibition assay (IC50), SF9 microsomes; type: biochemical; conditions: SF9 insect cells expressing human DGAT-1
T1 construct: made in house; host or cells: SF9 insect cells (microsomal membrane fraction)
T1 sequence (O75907 1-488): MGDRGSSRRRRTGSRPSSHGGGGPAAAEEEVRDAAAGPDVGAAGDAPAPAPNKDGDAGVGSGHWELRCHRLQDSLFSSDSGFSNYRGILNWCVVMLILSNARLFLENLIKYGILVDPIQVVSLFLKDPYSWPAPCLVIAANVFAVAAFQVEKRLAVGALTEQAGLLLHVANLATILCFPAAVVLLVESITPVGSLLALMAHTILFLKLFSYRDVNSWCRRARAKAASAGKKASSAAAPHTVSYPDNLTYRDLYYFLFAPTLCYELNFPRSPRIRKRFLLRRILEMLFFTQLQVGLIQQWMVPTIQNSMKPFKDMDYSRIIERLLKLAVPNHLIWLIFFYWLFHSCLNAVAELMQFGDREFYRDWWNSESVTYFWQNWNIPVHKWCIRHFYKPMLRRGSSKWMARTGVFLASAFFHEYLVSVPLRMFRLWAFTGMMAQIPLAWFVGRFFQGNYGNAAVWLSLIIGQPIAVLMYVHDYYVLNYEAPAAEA
Description: The activity of DGAT-1 inhibitors in vitro was evaluated by using a human recombinant DGAT1 enzyme expressed in insect cells (SF9 cells). SF9 cells were homogenised by washing them with DPBS (Dulbecco’s phosphate-buffered saline) and then suspending cell pellets with a tris buffer (250 mM sucrose; 10 mM Tris-HCl [pH 7.4]; proteinase inhibitor). The resulting mixture was centrifugally separated at 10,000 × g for 30 min to remove the cell debris remaining in the lower layer thereof, and was centrifugally separated at 100,000 × g for 60 min to obtain a microsomal membrane. Further, membrane fractions were resuspended by the tris buffer, and then stored at -80 °C.
The activity of DGAT1 was measured according to the reported method. Specifically, 0.0001 – 10 μΜ (final concentration, FC) of the test compounds were cultured at room temperature (25 °C) for 15 min with a […] of SF9 microsomal protein solution and 100 mM of MgCl2 solution, and were then further cultured at room temperature (25 °C) for 30 min after the addition of 100 μΜ (FC in 12.5% EtOH) of 1,2-dioleyl-sn-glycerol and 30 μΜ (final conc.) of [14]C-oleyl coenzyme A. The reaction was completed by the addition of 300 μL of a mixed solution of 2-propanol/heptane (7:1), and radioactive triglyceride was separated from an organic solvent layer by using 200 μL of heptane and 200 μL of a 0.1 M carbonate buffer (pH 9.5). The amount of triglyceride was measured by liquid scintillography (Perkin Elmer, USA) after mixing with an organic solvent and an equivalent amount of scintillation solvent (MicroScint-O, Perkin Elmer, USA). The effects of inhibiting DGAT1 were calculated as percent in comparison with a control material.
The activities of synthesised compounds were evaluated using SF9 insect cells expressing human DGAT-1[22]. A potent DGAT-1 inhibitor, LCQ-908 (2 or pradigastat) was used as a positive control. […] The calculated lowest energy conformation model of 14c provided that the distance between the terminal carboxylic acid and NH of urea was over 16 Å, which may result in reduced activity. […]

[4] = In vitro microsomal stability, mouse; type: in vitro ADME; conditions: mouse liver microsomes, 5 μM, 60 min
[5] = Pharmacokinetic profile in ICR mice; conditions: mouse, in vivo
[6] = Pharmacokinetic profile in rat; type: in vivo

Sequence of CYP2C9 (P11712 whole entry): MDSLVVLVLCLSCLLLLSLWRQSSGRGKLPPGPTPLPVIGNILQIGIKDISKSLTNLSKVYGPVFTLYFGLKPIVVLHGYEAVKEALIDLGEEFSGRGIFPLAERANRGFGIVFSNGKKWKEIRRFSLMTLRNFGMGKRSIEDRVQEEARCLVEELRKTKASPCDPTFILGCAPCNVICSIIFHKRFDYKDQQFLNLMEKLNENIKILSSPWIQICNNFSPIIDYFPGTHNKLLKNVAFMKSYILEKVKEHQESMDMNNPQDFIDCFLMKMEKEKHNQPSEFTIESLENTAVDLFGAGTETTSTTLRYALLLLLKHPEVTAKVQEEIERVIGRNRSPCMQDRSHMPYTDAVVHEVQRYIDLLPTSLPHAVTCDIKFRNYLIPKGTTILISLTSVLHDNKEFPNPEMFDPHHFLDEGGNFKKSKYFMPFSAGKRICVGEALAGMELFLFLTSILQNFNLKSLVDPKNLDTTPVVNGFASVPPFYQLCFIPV

SMILES: O=C([O-])C[C@H]1CC[C@@H](c2csc3c(-c4ccc(NC(=O)Nc5cccc(Cl)c5)cc4)ncnc32)CC1.[Na+] [Compound 17a, Sodium cis-2–(4–(4-(4-(3–(3-chlorophenyl)ureido)phenyl)thieno[3,2-d]pyrimidin-7-yl)cyclohexyl)acetate]
- IC50 (CYP2C9): 2900 nM
- Microsomal stability, remaining percent [1]: 87%
- Microsomal stability, remaining percent [2]: 82%
- IC50 (CYP2C19): > 20000 nM
- Reduction of plasma TAG level in OLTT (plasma TAG level): significant activity, as potent as compound 2
- IC50 [3]: 74 nM
- Microsomal stability, remaining percent [4]: 82%
- bioavailability ([5]; oral 10 mg/kg vs iv 3 mg/kg): 19%
- Cmax ([5]; oral 10 mg/kg, n = 3): 479 ng/mL
- half-life ([5]; oral 10 mg/kg, n = 3): 1.2 h
- AUC ([5]; oral 10 mg/kg, n = 3, read-out: AUC 0∼24): 861 ng·h/mL
- Cl ([6]; 3 mg/kg iv, 10 mg/kg po): 8.3 ± 3.3 mL/min/kg
- half-life ([6]; in vivo, 10 mg/kg po): 3 ± 0.4 h
- bioavailability ([6]; in vivo, 10 mg/kg po vs 3 mg/kg iv): 30%
- AUC ([6]; in vivo, 10 mg/kg po, read-out: AUC 0 ∼ 24): 18600 ng·h/mL

Source: article PMC6882492, “Synthesis and biological evaluation of novel thienopyrimidine derivatives as diacylglycerol acyltransferase 1 (DGAT-1) inhibitors” (Journal of Enzyme Inhibition and Medicinal Chemistry, 2019)
